Reference: patent US20110105611A1, “USE OF MASLINIC ACID FOR THE TREATMENT OF P[…] THEIR SYMPTOMS THROUGH THE INHIBITION OF COX-2” (Biomaslinic S.L., priority 2008, published 2011)
“Also recorded” adds a separate entry of the source. Read-outs that look alike come from different tables or passages of the source.

Experiments:
[1] = system: PGE2 production in human monocytes; experiment: PGE2 production in LPS-stimulated human monocytes of peripheral blood (EIA); assay type: cell-based; conditions: LPS-stimulated human monocytes from peripheral blood
Source text: (§1) 2. Cell Cultures • Isolation and culture of primary monocytes of peripheral blood. Peripheral blood mononuclear cells (PBMC) coming from healthy adults volunteer donors were isolated by venous blood centrifugation through density gradient with Ficoll-Hypaque. The monocytes were separated through adherence to plastic and later cultured in 24-well plates at a density of 50,000 cells/ml for the enzyme immunoassay (EIA) experiments and in 6-well plates for the immunoblot assays. • Culture of human primary chondrocytes. Chondrocytes were bought from Promocell (Heidelberg, Germany) and cultured in medium conditioned for this type of cells. The cells were cultured in 24-well plates for the determination of PGE2 and IL-6. • Culture of rat primary astrocytes. The astrocyte primary cultures were prepared from neonatal rat brains (1 day old). […] The cultures were expanded in 6-well plates and the production of PGE2 measured in cells after the 3 or 4 pass. • Culture of cell lines. […]
Chondrocyte, monocyte and astrocyte cultures were stimulated with the corresponding activators (IL-1, LPS or PMA plus lonomicine) in presence or absence of several concentrations of maslinic acid during the indicated times. […] PGE2 was determined using the EIA system of Assay Designs (catalogue number 901-001) following the manufacturer instructions. […]

[2] = system: COX-2; experiment: COX-2 protein expression in LPS-stimulated monocytes (western blot); assay type: cell-based, human; conditions: growing doses of MA, 12 hours, listed as MA
Source text: as §1, with “cells.” for “cells. The cells were cultured in 24-well plates for the determination of PGE2 and IL-6. • Culture of rat primary astrocytes. The astrocyte primary cultures were prepared from neonatal rat brains (1 day old).”
The cells (primary monocytes or SK—N—SH) were stimulated as indicated in each case and lysis solution in 50 μl (20 mM Hepes pH 8.0, 10 mM KCl, 0.15 mM EGTA, 0.15 mM EDTA, 0.5 mM Na3VO4, 5 mM NaF, 1 mM DTT, leupeptin 1 μg/ml, pepstatin 0.5 μg/ml, aprotinin 0.5 μg/ml, 1 mM PMSF y 0.5% NP-40). The protein concentration was determined through the Bradford reagent (Bio-Rad, Richmond, Calif., USA) and 30 μg of proteins were boiled in Laemmli solution and submitted to electrophoresis in gel of SDS/polyacrylamide at 10%. […]

[3] = system: COX-2; experiment: COX-2 enzymatic activity in LPS-induced monocytes (conversion of arachidonic acid to PGE2); assay type: cell-based, human; conditions: monocytes LPS 24 hours, MA 15 minutes, arachidonic acid 15 μM 15 minutes
Description: In order to determine COX-2 activity, the cells were LPS-stimulated first (10 ng/ml) for 24 hours to induce the cellular expression of the COX-2 protein. After that time the cultures were washed and a new free of serum culture medium, maslinic acid (different concentrations) and arachidonic acid (AA) were added for 15 minutes. During this time, the enzymatic activity of COX-2 was measured by its capacity to produce PGE2 from the AA included in the culture.
Vis-à-vis the possibility of MA acting as inhibitor of COX-2 activity, we induced the expression of COX-2 through the treatment of monocytes with LPS for 24 hours. After this time, the cells were washed three times with a medium without serum and incubated for 15 minutes with growing doses of MA. After this time, arachidonic acid was added to the cultures (15 μM) for other 15 minutes and the conversion to PGE2 was measured by EIA.

[4] = system: promoter of the COX-2 gene; experiment: COX-2 promoter luciferase assay in transfected SK-N-SH cells; assay type: cell-based, human; conditions: PMA plus ionomycin 6 hours
Source text: as §1
(§2) SK—N—SH cells were transfected with the plasmids COX-2-Luc and IL-6-Luc using the JetPei reagent (Polyplus transfection, France) according to the manufacturer instructions. […] The luciferase activity in the protein extract was determined through the use of the luminometer Autolumat LB9510 (Berthold) following the system instructions of Luciferase assay from Promega (Madison, Wis., USA). […]

[5] = system: PGE2 production in human chondrocytes; experiment: PGE2 release in primary human chondrocytes stimulated with IL-1; assay type: cell-based; conditions: IL-1 10 U/ml; for release of PGE2 induced by IL-1, higher doses: MA 25 and 50 μg/ml
Source text: (§3) 2. Cell Cultures • Isolation and culture of primary monocytes of peripheral blood. Peripheral blood mononuclear cells (PBMC) coming from healthy adults volunteer donors were isolated by venous blood centrifugation through density gradient with Ficoll-Hypaque. The monocytes were separated through adherence to plastic and later cultured in 24-well plates at a density of 50,000 cells/ml for the enzyme immunoassay (EIA) experiments and in 6-well plates for the immunoblot assays. • Culture of human primary chondrocytes. Chondrocytes were bought from Promocell (Heidelberg, Germany) and cultured in medium conditioned for this type of cells. The cells were cultured in 24-well plates for the determination of PGE2 and IL-6. • Culture of rat primary astrocytes. The astrocyte primary cultures were prepared from neonatal rat brains (1 day old). The upper part of the brain was opened and the meninges carefully separated to avoid contamination of the cultures with fibroblasts. The cerebral cortex was isolated and a cellular suspension was obtained, which was cultured in DMEM conditioned for the astrocyte culture. The cultures were expanded in 6-well plates and the production of PGE2 measured in cells after the 3 or 4 pass. • Culture of cell lines. SK—N—SH (American Tissue Culture collection, HTB 11) is a cell line derived from a human neuroblastoma and an exponential growth in DMEM supplemented by 2 mmol/l L-glutamine, antibiotics and 10% FCS. The cells were cultured at 37° C. and in an atmosphere at 5% CO2.
(§4) Chondrocyte, monocyte and astrocyte cultures were stimulated with the corresponding activators (IL-1, LPS or PMA plus lonomicine) in presence or absence of several concentrations of maslinic acid during the indicated times. […] PGE2 was determined using the EIA system of Assay Designs (catalogue number 901-001) following the manufacturer instructions.
(§5) In order to determine if the effect of MA on the production of PGE2 also occurred in another cell type involved in inflammatory phenomena the anti-inflammatory activity of maslinic acid on primary human chondrocytes was determined. […]

[6] = system: IL-6 production in human chondrocytes; experiment: IL-6 production in primary human chondrocytes stimulated with IL-1; assay type: cell-based; conditions: IL-1 10 U/ml, concentration dependent
Source text: as §1, with “old). The upper part of the brain was opened and the meninges carefully separated to avoid contamination of the cultures with fibroblasts.” for “old).”
as §5

[7] = system: IL-6 production in human monocytes; experiment: IL-6 production in LPS-stimulated human monocytes (EIA); assay type: cell-based
Source text: as §1
(§6) Monocyte cultures were stimulated in the same way as for the production of PGE2 (LPS stimulation for 24 hours) and the amount of 8-iso-prostaglandine F2α (isoprostanes) or IL-6 released by the cells was determined respectively through the systems EIA from Cayman (USA) (catalogue number 516351) or from Pelikine (catalogue number RDI-M1916clb) following the manufacturer instructions.

[8] = system: promoter of IL-6; experiment: IL-6 promoter luciferase assay in transfected SK-N-SH cells; assay type: cell-based, human; conditions: listed as MA
Source text: as §1, §2

[9] = system: 8-iso-PGF2α production in human monocytes; experiment: Isoprostane (8-iso-PGF2α) release in LPS-stimulated human monocytes (EIA); assay type: cell-based; conditions: for release of 8-iso-PGF2α (isoprostanes): human monocytes of peripheral blood after LPS stimulation
Source text: as §3, §6
Isoprostanes such as endoperoxide 8-iso-prostaglandin F2α (8-iso-PGF2α) are metabolites of the oxidation of arachidonic acid and nowadays it is considered one of the best markers of oxidative stress. […]

[10] = system: PGE2 production in primary astrocytes; experiment: PGE2 production in primary rat astrocytes; assay type: cell-based
Source text: as §1, §4

[11] = system: PGE2 production in SK-N-SH cells; experiment: PGE2 production in SK-N-SH neuroblastoma cell line; assay type: cell-based, human
Source text: as §1, §4

[12] = system: T lymphocytes; experiment: Activation and proliferation of T lymphocytes stimulated via TCR; assay type: cell-based
[13] = system: TNFα production in primary monocytes; experiment: TNFα production in primary monocytes; assay type: cell-based
[14] = system: tumor cell lines; experiment: Apoptosis induction in tumor cell lines (concentration comparison); assay type: cell-based
[15] = system: LPS-stimulated murine peritoneal macrophages; conditions: cited from earlier work
[16] = system: mononuclear cells of human peripheral blood; conditions: cited from earlier work

SMILES: CC1(C)CC[C@]2(C(=O)O)CC[C@]3(C)C(=CC[C@@H]4[C@@]5(C)C[C@@H](O)[C@H](O)C(C)(C)[C@@H]5CC[C@]43C)[C@@H]2C1 [maslinic acid, 2-alpha,3-beta-dihydroxyolean-12-en-28-oic acid]
- production of PGE2 [1]: inhibits the production; also recorded: inhibited the production of PGE2
- production of PGE2 ([1]; listed as Maslinic acid): inhibits the production of PGE2
- expression of COX-2 induced by LPS (western blot) [2]: did not inhibit the expression of COX-2
- enzymatic activity of COX-2 (conversion of arachidonic acid to PGE2, EIA) [3]: inhibits the enzymatic activity of COX-2
- enzymatic activity of COX-2 (conversion of arachidonic acid to PGE2, EIA) ([3]; listed as MA): inhibited in a dose-depending manner the enzymatic activity of COX-2
- transcriptional activity of the COX-2 gene (luciferase) [4]: does not inhibit the transcriptional activation of the gene promoter of COX-2
- transcriptional activity of the COX-2 gene (luciferase) ([4]; listed as MA): did not affect the transcriptional activity of the COX-2 gene
- production of PGE2 after stimulation with IL-1, low doses ([5]; MA 0.1 and 1 μg/ml): an increase in the production of PGE2
- release of PGE2 induced by IL-1, higher doses [5]: at high doses inhibits the production of PGE2
- release of PGE2 induced by IL-1, higher doses ([5]; listed as MA): a complete inhibition of the release of this prostaglandin
- production of IL-6 [6]: inhibits the production of IL-6
- production of IL-6 ([6]; listed as MA): completely inhibited
- IL-6 induced by LPS [7]: inhibits the production
- IL-6 induced by LPS ([7]; listed as Maslinic acid): inhibits the production of IL-6
- transcriptional activity of the IL-6 promoter (luciferase), IL-1 stimulation ([8]; IL-1, 4 hours): is not produced by a transcriptional inhibition of the gene of IL-6; also recorded: does not inhibit the transcriptional activity of the IL-1 promoter
- transcriptional activity of the IL-6 promoter (luciferase), PMA plus ionomycin stimulation ([8]; PMA plus ionomycin, 4 hours): is not produced by a transcriptional inhibition of the gene of IL-6; also recorded: does not inhibit the transcriptional activity of the IL-1 promoter
- release of 8-iso-PGF2α (isoprostanes) [9]: inhibits the production of isoprostanes
- release of 8-iso-PGF2α (isoprostanes) ([9]; listed as MA): inhibits in a concentration depending way the release of 8-iso-PGF2α
- inhibiting power on the production of isoprostanes compared with reference antioxidants ([9]; primary monocytes, listed as MA): higher than that of tocopherol and trolox; also recorded: comparable to that of resveratrol
- production of PGE2 in primary astrocytes [10]: Dual Effect
- production of PGE2 in SK-N-SH cell line (neuroblastoma) ([11]; listed as Maslinic Acid): Dual Effect
- production of PGE2 in SK-N-SH cell line (neuroblastoma) ([11]; listed as Maslinic acid): at high doses inhibits the production of PGE2
- activation and proliferation of T lymphocytes [12]: inhibits the activation and proliferation of T lymphocytes
- production of TNFα [13]: inhibits the production
- concentrations inhibiting innate and acquired immune responses versus those required to induce apoptosis in tumor cell lines [14]: noticeably lower
- production of NO [15]: inhibits
- production of hydrogen peroxide (ROS) [15]: inhibits
- release of IL-6 [15]: inhibits
- release of TNFα [15]: inhibits
- inhibition of IL-6, TNFα, NO and hydrogen peroxide [16]: do not find
